Results from patent publication US5688488A, “Composition and method for tumor imaging” (priority 1995, dated 1997).

Assays:
[1] = system: KB cells; assay: Uptake of ^67 Ga-DF-folate complex by cultured KB cells; type: cell-based, human; details: for saturating level of cellular uptake, of the total radioactivity added: concentration dependence
Experimental: (§1) Cell Culture. KB cells, a human nasopharyngeal epidermal carcinoma cell line that greatly overexpresses the folate binding protein, were cultured continuously as a monolayer at 37° C. in a humidified atmosphere containing 5% CO2 in folate-deficient modified Eagle's medium (FDMEM) (a folate-free modified Eagle's medium supplemented with 10% (v/v) heat-inactivated fetal calf serum as the only source of folate) containing penicillin (50 units/mL), streptomycin (50 μg/mL), and 2 mM L-glutamine. The final folate concentration in the complete FDMEM is the physiological range (~2 nM). 48 h prior to each experiment, the cells were transferred to 35 mm culture dishes at 5×10^5 cells per dish and grown to ~80% confluent.
Because folate and its conjugates bind to cell surface receptors at 4° C., but are capable of endocytosis only at higher temperatures, it is possible to separately evaluate the kinetics of binding the internalization of folate by measuring the rates of folate conjugate uptake at the two temperatures. […] By the end of the 30 min incubation, binding approached to saturation with ~18% of the initial radioactivity found associated with a cell surface.
Incubation at 37° C., a temperature which permits both binding and endocytosis, yielded similar kinetic results, however, maximal uptake reached 32% of the total conjugate added. Presumably, the difference in magnitude of the two cellular uptake curves reflects the ability of the folate receptor to internalize the conjugate and then recycle to the cell surface in its unoccupied form. […] This latter result is consistent with the inability of the α-conjugate to compete with free folate for the cell surface receptor.
To verify the involvement of a cell surface folate receptor in mediating the uptake of ^67 Ga-DF-folate(γ), binding and internalization of the complex were evaluated as a function of the complex's concentration. Cellular uptake of ^67 Ga-DF-folate(γ) was concentration dependent at both 4° C. and 37° C., saturating at levels of 20% and 35% of the total radioactivity added, respectively.

[2] = system: human KB cells tumors; type: in vivo, athymic mice; details: 29.6 mg tumor; ~45 hours post-injection
Experimental: To test the tumor-cell-selective uptake of metal-labeled radiopharmaceuticals in vivo, ~180 μCi of ^67 Ga-deferoxamine-folate conjugate (See FIG. 3) was administered to two tumor-bearing athymic mice. Tumors were generated in athymic mice by subcutaneous injecting human KB cells into the dorsal-lateral region of the mice according to procedures familiar to those of ordinary skill in the art. After establishment of tumors in the mice, ~180 μCi of ^67 Ga-deferoxamine-folate conjugate was administered intravenously. Approximately 45 hours post-injection, gamma images were obtained and the tissue distribution of ^67 Ga quantitated.
To test the viability of the FBP-receptor as a pathway for achieving tumor-cell-selective uptake of metal-labeled radiopharmaceuticals in vivo, ~180 μCi of ^67 Ga-deferoxamine-folate conjugate was administered intravenously to two tumor-bearing athymic mice via the femoral vein nine days after subcutaneous injection of 4×10^6 human KB cells. At approximately 45 hours post-injection, gamma images were obtained, the animals were sacrificed and dissected, and the tissue distribution of tracer was quantified by gamma counting (after storage of the weighted tissue samples for decay to a suitable ^67 Ga count rate). […] The tumor to blood ratio was 1500 and 1185 and the tumor to muscle ratio was 170 and 288 for each respective mouse.

[3] = system: Subcutaneous KB Cell Tumors
[4] = target: membrane-bound folate-binding-protein receptor (FBP); details: cited from earlier work
[5] = system: membrane transport protein; details: facilitated transport by membrane transport protein; cited from earlier work
[6] = physchem; type: physicochemical; details: water
Experimental: The crude product contained a mixture of folate-deferoxamine conjugates, wherein the folate is linked to DF via its α-carboxyl or γ-carboxyl group as well as unreacted folic acid. The two isomers of DF-folate were isolated and purified on a weak anion-exchange column. Briefly, the product mixture was loaded onto a 1.5 cm×15 cm […] column pre-equilibrated in 10 mM NH4 CO3 buffer (pH 7.9). The column was washed with 50 mL 10 mM NH4 HCO3 and then eluted with a 500 mL gradient of 80-180 mM NH4 HCO3 followed by 150 mL 500 mM NH4 HCO3. Three folate-containing peaks were obtained as detected by UV absorbance at 363 nm. Each peak was collected, lyophilized, and redissolved in deionized water. The purity of each component was confirmed by reverse-phase high pressure liquid chromatography (HPLC) with a 10 mm×250 mm Licrosorb RP-18 column (Altech, Deerfield, Ill.), and evaluation of the conjugates' molecular weights was determined by fast-atom bombardment mass spectroscopy (FAB-MS). The characteristic pKa values of the two DF-folate isomers were obtained by titration on a pH/ion analyzer (Corning, Corning, N.Y.). […] Since the two isoforms of DF-folate conjugate retain either a free γ-carboxyl or free α-carboxyl, they can be distinguished from each other and from unreacted folic acid by their characteristic pKa values, which were determined by titration.

[7] = target: T1, KB cell folate-binding protein (Homo sapiens, UniProt P15328); assay: Competitive binding assay using [^3 H]folic acid on KB cells; details: equimolar amount (100 pmoles each), 30 min, 4° C.
T1 construct: endogenous in cells; host or cells: KB cells
Experimental: as §1
The affinity of the DF-folate(α) and DF-folate(γ) conjugates for the KB cell folate-binding protein was evaluated in a competitive binding assay using [^3 H]folic acid as the receptor ligand. Briefly, 100 pmoles of [^3 H]folic acid and 100 pmoles of either DF-folate(α) or DF-folate(γ) dissolved in phosphate-buffered saline (PBS) were added to KB cells grown ~80% confluence in 1 mL FDMEM in 35 mm culture dishes. Following a 30 min incubation at 4° C., the cells were washed 3 times with cold PBS. Cell-associated [^3 H] folic acid was then determined by liquid scintillation counting, and the cellular protein content was evaluated by the BCA protein assay.

[8] = system: Rat pheochromocytoma (PC-12) cells; assay: Rat pheochromocytoma cell uptake of biotin conjugated proteins, fluorescent microscope; type: cell-based; details: 37° C., 5, 15 and 33 minutes
Experimental: Rat pheochromocytoma (PC-12) cells were obtained from America Type Culture Collection and were grown (37° C., 5% CO2 in humidified air) attached to plastic flasks for 2 to 3 weeks until confluent in a medium of 85% RMPI 1640, 10% v/v heat inactivated horse serum, and 5% fetal calf serum containing 1% streptomycin-penicillin.
Biotin and fluorescein labeled insulin was prepared.
The rat PC12 cells were grown in modified RMPI 1640 medium as a monolayer on the bottom of a culture flask. Before removing the cells, the monolayer was washed with a 20 ml portion of fresh Locke's solution. The cells were then displaced into 20 ml of the Locke's solution by gentle agitation with a stream Locke's solution. […] The tubes were allowed to incubate at 37° C. At intervals of 5, 15 and 33 minutes, 0.5 ml of each cell suspension was removed and pelleted at 10,000×g for 10 seconds. The cell pellet was washed and repelleted twice in 1 ml Locke's solution and then fixed by addition of 200 l of a 2% formalin solution in phosphate buffered saline. Thirteen microliters of the fixed cell suspension was then added to a microscope slide and viewed with the fluorescent microscope to detect internalized proteins.

[9] = system: KB cells (a human nasopharyngeal cell line); assay: Uptake of ^125 I-labeled folate-labeled protein by KB cells; type: cell-based
[10] = 17 hours after intraperitoneal injection
[11] = system: human HeLa cells; assay: Uptake of ^125 I-labeled folate-labeled RNase by HeLa cells; type: cell-based
[12] = system: KB cells; assay: Visualization of ribonuclease endocytosis by KB cells using a confocal microscope; type: cell-based, human; details: 60 minute incubation
Experimental: RNase labeled only with fluoroscein was used as a control. Following extensive dialysis against growth medium, the control and folate-labeled RNase samples were added to separate cultures of KB cells. After 60 minute incubation, the cells were thoroughly washed and examined for uptake. […] Furthermore, using the confocal's capability of focusing on a single horizontal plane in each cultured cell, it was readily evident that vesicles filled with the fluorescent-labeled, folate-bound ribonuclease were forming on all regions of the cell surface, pinching off via endocytosis into the interior, and entering the cytoplasm. The vesicles, measuring […] across, were easily large enough to accommodate large biomolecules such as proteins and DNA plasmids.

[13] = system: white blood cells in whole human blood; details: 37° C., 2 hours
Experimental: Fluorescein-labeled RNase was either conjugated to folate or left unmodified (control) following the same general procedure set forth in Example 19. The folate-conjugated and control samples were then added to freshly drawn whole human blood, incubated at 37° C. for 2 hours and then washed thoroughly and examined under the fluorescence microscope.

[14] = system: BHK cells; assay: Ribonuclease-riboflavin uptake by BHK cells; type: cell-based; details: 10 μg/ml, various times (FIG. 4)

T1 sequence (P15328 25-257): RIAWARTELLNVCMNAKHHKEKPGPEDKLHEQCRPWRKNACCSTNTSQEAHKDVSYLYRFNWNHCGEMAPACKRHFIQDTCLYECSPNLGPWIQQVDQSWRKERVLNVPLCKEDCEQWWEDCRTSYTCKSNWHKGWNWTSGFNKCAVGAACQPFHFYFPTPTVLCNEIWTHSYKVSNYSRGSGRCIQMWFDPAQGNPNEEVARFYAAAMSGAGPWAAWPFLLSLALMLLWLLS

CC(=O)N([O-])CCCCCNC(=O)CCC(=O)N([O-])CCCCCNC(=O)CCC(=O)N([O-])CCCCCNC(=O)CCC(NC(=O)c1ccc(NCc2cnc3nc(N)[nH]c(=O)c3n2)cc1)C(=O)O.[67Ga+3] (stereo not shown) [^67 Ga-DF-Folate]
time to half maximal binding ([1]; 4° C.): ~ 3 min | saturating level of cellular uptake, of the total radioactivity added ([1]; 4° C.): 20% | initial radioactivity associated with cell surface ([1]; 4° C., end of 30 min incubation): ~ 18% | maximal uptake, of the total conjugate added ([1]; 37° C.): 32% | saturating level of cellular uptake, of the total radioactivity added ([1]; 37° C.): 35% | initial cellular uptake retained ([1]; 100-fold molar excess of free folate): 0.5% | decrease in uptake ([1]; equimolar unlabeled folic acid): 50% | detection of tumor by gamma scintigraphy [2]: readily detected by gamma scintigraphy | imaging of tumors in vivo with a gamma camera ([3]; 8 mm tumors): 8 mm tumors were easily imaged in vivo | Tumor-to-Non-target Ratio: Tumor/blood ([3]; mouse, in vivo, iv, 270 min): 48 ± 5 | Tumor-to-Non-target Ratio: Tumor/kidney ([3]; mouse, in vivo, iv, 270 min): 1.4 ± 0.5 | Tumor-to-Non-target Ratio: Tumor/liver ([3]; mouse, in vivo, iv, 270 min): 5.1 ± 0.5 | Tumor-to-Non-target Ratio: Tumor/muscle ([3]; mouse, in vivo, iv, 270 min): 82 ± 16 | Percentage of Injected Dose per Gram of Tissue: Blood ([3]; mouse, in vivo, iv, 4.5 h): 0.046 ± 0.009 % of injected dose per gram | Percentage of Injected Dose per Gram of Tissue: Heart ([3]; mouse, in vivo, iv, 4.5 h): 0.025 ± 0.005 % of injected dose per gram | Percentage of Injected Dose per Gram of Tissue: Kidney ([3]; mouse, in vivo, iv, 4.5 h): 1.79 ± 0.82 % of injected dose per gram | Percentage of Injected Dose per Gram of Tissue: Liver ([3]; mouse, in vivo, iv, 4.5 h): 0.43 ± 0.03 % of injected dose per gram | Percentage of Injected Dose per Gram of Tissue: Lungs ([3]; mouse, in vivo, iv, 4.5 h): 0.052 ± 0.010 % of injected dose per gram | Percentage of Injected Dose per Gram of Tissue: Muscle ([3]; mouse, in vivo, iv, 4.5 h): 0.028 ± 0.005 % of injected dose per gram | Percentage of Injected Dose per Gram of Tissue: Tumor ([3]; mouse, in vivo, iv, 4.5 h): 2.22 ± 0.36 % of injected dose per gram

Nc1nc2ncc(CNc3ccc(C(=O)N[C@@H](CCC(=O)O)C(=O)O)cc3)nc2c(=O)[nH]1 [folic acid, Folic acid, reference compound]
Ka [4]: 500 pM | Km [5]: 1.5 µM | pKa ([6]; pKa1): 2.5 | pKa ([6]; pKa2): 4.5

CC(=O)N(O)CCCCCNC(=O)CCC(=O)N(O)CCCCCNC(=O)CCC(=O)N(O)CCCCCNC(=O)CC[C@H](NC(=O)c1ccc(NCc2cnc3nc(N)[nH]c(=O)c3n2)cc1)C(=O)O [DF-folate(γ)]
decrease in bound [^3 H]folic acid [7]: 50% | pKa ([6]; pKa): 4.5

CC(=O)N(O)CCCCCNC(=O)CCC(=O)N(O)CCCCCNC(=O)CCC(=O)N(O)CCCCCNC(=O)[C@H](CCC(=O)O)NC(=O)c1ccc(NCc2cnc3nc(N)[nH]c(=O)c3n2)cc1 [DF-folate(α)]
decrease in bound [^3 H]folic acid [7]: no ability to compete | pKa ([6]; pKa): 2.5

fluorescein labeled insulin: non-biotinylated fluorescein labeled insulin, control
cellular internalization (fluorescent microscope) [8]: No evidence of internalization

B1: RNase-Folate: ^125 I bovine ribonuclease with 12-14 covalently bound folates per protein molecule (conjugate, UniProt P61823 27-150, looked up)
Ribonuclease pancreatic: KETAAAKFERQHMDSSTSAASSSNYCNQMMKSRNLTKDRCKPVNTFVHESLADVQAVCSQKNVACKNGQTNCYQSYSTMSITDCRETGSSKYPNCAYKTTQANKHIIVACEGNPYVPVHFDASV
modifications: 125I label; 12-14 folates
reduction of uptake by competitive inhibition ([9]; 100-fold molar excess of unligated folate): 7 fold | molecules per cell internalized ([9]; KB cells, after 30 minutes): 10^7 molecules per cell | brain tissue uptake (delivery across the blood/brain barrier) [10]: brain tissue's preferential uptake of the folate-labeled protein | uptake by HeLa cells [11]: corresponding results

B2: SBTI: soybean trypsin inhibitor, folate-ligated as in Example 17 (conjugate, UniProt P01070 25-205, looked up)
Trypsin inhibitor A: DFVLDNEGNPLENGGTYYILSDITAFGGIRAAPTGNERCPLTVVQSRNELDKGIGTIISSPYRIRFIAEGHPLSLKFDSFAVIMLCVGIPTEWSVVEDLPEGPAVKIGENKDAMDGWFRLERVSDDEFNNYKLVFCPQQAEDDKCGDIGISIDHDDGTRRLVVSKNKPLVVQFQKLDKESL
modifications: folate conjugated
uptake of SBTI by KB cells ([9]; procedure of Example 17): Folate ligation was again demonstrated to be essential for uptake

B3: folate-labeled RNase: Bovine ribonuclease labeled with fluorescein isothiocyanate and further labeled with folate (conjugate, UniProt P61823 27-150, looked up)
Ribonuclease pancreatic: B1 Ribonuclease pancreatic
modifications: fluorescein and folate conjugated
internal fluorescence (confocal microscope) [12]: Only the folate-labeled samples displayed any internal fluorescence | cell fluorescence (fluorescence microscope) [13]: found to fluoresce

B4: RNase A-Rf (6): ^125 I ribonuclease derivatized with 6 riboflavins per protein (conjugate, UniProt P61823 27-150, looked up)
Ribonuclease pancreatic: B1 Ribonuclease pancreatic
modifications: 125I label; 6 riboflavins
notes: ^125 I ribonuclease derivatized with 6 riboflavins per protein
uptake of ^125 I-ribonuclease by BHK cells [14]: highest rate of uptake
